In brackets after ≈: the same amount, converted by molar mass.
Experiments:
Format in all cases: cell-based
[1] = tested on: Bacillus subtilis ATCC 6633; assay: Determination of minimal inhibitory concentration of growth (MIC)-1, agar plate dilution method; conditions: ATCC6633; Bacillus subtilis ATCC 6633; agar plate dilution, 10⁶ CFU/ml, 37°C, 18 hours; read-out: MIC
Method: (§1) Method: MIC was determined by the agar plate dilution method in accordance with the standard protocol of Japan Society of Chemotherapy (cf. Chemotherapy 29 (1), 76-79, 1981). Each bacterial culture obtained by 18-hour incubation in a sensitivity assay bouillon medium at 37°C was diluted to 10⁶ CFU/ml with the same medium. Using a microplanter, a sensitivity assay agar medium containing the test drug was inoculated with the diluted culture and incubated at 37°C for 18 hours. The MIC value was then determined. As reference drugs, 6-fluoro-1-methyl-4-oxo-7-(1-piperazinyl)-4H-[1,3]thiazeto[3,2-a]quinoline-3-carboxylic acid (referred to as control), ciprofloxacin (CPFX) and ofloxacin (OFLX) were used.

[2] = tested on: Enterococcus faecalis ATCC 29212; assay: as above; conditions: ATCC29212; Enterococcus faecalis ATCC 29212; agar plate dilution, 10⁶ CFU/ml, 37°C, 18 hours; read-out: MIC
Method: as §1

Escherichia coli KC-14 = assay: as above; conditions: Escherichia coli, KC14, 18 h, 10⁶ CFU/ml, 37°C, read-out: MIC
Method: as §1

[3] = tested on: Micrococcus luteus ATCC 9341; assay: as above; conditions: ATCC9341; Micrococcus luteus ATCC 9341; agar plate dilution, 10⁶ CFU/ml, 37°C, 18 hours; read-out: MIC
Method: as §1

Proteus vulgaris HX-19 = assay: as above; conditions: Proteus vulgaris, HX19, 18 h, Proteus vulgaris HX-19; agar plate dilution, 10⁶ CFU/ml, 37°C, 18 hours; read-out: MIC
Method: as §1

[4] = tested on: Pseudomonas aeruginosa IFO 3445; assay: as above; conditions: Pseudomonas aeruginosa, IFO3445, 18 h, Pseudomonas aeruginosa IFO 3445; agar plate dilution, 10⁶ CFU/ml, 37°C, 18 hours; read-out: MIC
Method: as §1

[5] = tested on: Staphylococcus aureus 209-P JC-1; assay: as above; conditions: Staphylococcus aureus, 209P, 18 h, Staphylococcus aureus 209-P JC-1; agar plate dilution, 10⁶ CFU/ml, 37°C, 18 hours; read-out: MIC
Method: as §1

[6] = tested on: Staphylococcus aureus OWPH 1984 (MRSA); assay: as above; conditions: Staphylococcus aureus, MRSA, 18 h, Staphylococcus aureus OWPH 1984 (MRSA); agar plate dilution, 10⁶ CFU/ml, 37°C, 18 hours; read-out: MIC
Method: as §1

[7] = tested on: Staphylococcus aureus OWPH 2125 (MRSA, PCA^r ); assay: as above; conditions: Staphylococcus aureus, MRSA, 18 h, Staphylococcus aureus OWPH 2125 (MRSA, PCA^r); agar plate dilution, 10⁶ CFU/ml, 37°C, 18 hours; read-out: MIC
Method: as §1

[8] = tested on: Staphylococcus aureus Smith; assay: as above; conditions: Staphylococcus aureus Smith; agar plate dilution, 10⁶ CFU/ml, 37°C, 18 hours; read-out: MIC
Method: as §1

[9] = tested on: Staphylococcus epider-midis IFO 12993; assay: as above; conditions: Staphylococcus, IFO12993, 18 h, Staphylococcus epider-midis IFO 12993; agar plate dilution, 10⁶ CFU/ml, 37°C, 18 hours; read-out: MIC
Method: as §1

S. aureus OWPH 1770 = assay: Determination of minimal inhibitory concentration (MIC)-2, new quinolone-resistant MRSA; conditions: Staphylococcus aureus, OWPH1770, 18 h; S. aureus OWPH 1770, new quinolone-resistant and methicillin-resistant; same procedure as Test Example 1
Method: as §1
(§2) The antibacterial activity of the compounds obtained in Example 4, Example 25 and Example 26 of the present invention was assayed by the same procedure as in Test Example 1. As reference drugs, 6-fluoro-1-methyl-4-oxo-7-(1-piperazinyl)-4H-[1,3]-thiazeto[3,2-a]quinoline-3-carboxylic acid (referred to as Control), norfloxacin (NFLX) and tosufloxacin (TFLX) were used.

S. aureus OWPH 1773 = assay: as above; conditions: Staphylococcus aureus, OWPH1773, 18 h; S. aureus OWPH 1773, new quinolone-resistant and methicillin-resistant; same procedure as Test Example 1
Method: as §1, §2

S. aureus OWPH 1786 = assay: as above; conditions: Staphylococcus aureus, OWPH1786, 18 h; S. aureus OWPH 1786, new quinolone-resistant and methicillin-resistant; same procedure as Test Example 1
Method: as §1, §2

S. aureus OWPH 1792 = assay: as above; conditions: Staphylococcus aureus, OWPH1792, 18 h; S. aureus OWPH 1792, new quinolone-resistant and methicillin-resistant; same procedure as Test Example 1
Method: as §1, §2

S. aureus OWPH 1793 = assay: as above; conditions: Staphylococcus aureus, OWPH1793, 18 h; S. aureus OWPH 1793, new quinolone-resistant and methicillin-resistant; same procedure as Test Example 1
Method: as §1, §2

S. aureus OWPH 1796 = assay: as above; conditions: Staphylococcus aureus, OWPH1796, 18 h; S. aureus OWPH 1796, new quinolone-resistant and methicillin-resistant; same procedure as Test Example 1
Method: as §1, §2

S. aureus OWPH 1799 = assay: as above; conditions: Staphylococcus aureus, OWPH1799, 18 h; S. aureus OWPH 1799, new quinolone-resistant and methicillin-resistant; same procedure as Test Example 1
Method: as §1, §2

S. aureus OWPH 2124 = assay: as above; conditions: Staphylococcus aureus, OWPH2124, 18 h; S. aureus OWPH 2124, new quinolone-resistant and methicillin-resistant; same procedure as Test Example 1
Method: as §1, §2

S. aureus OWPH 2127 = assay: as above; conditions: Staphylococcus aureus, OWPH2127, 18 h; S. aureus OWPH 2127, new quinolone-resistant and methicillin-resistant; same procedure as Test Example 1
Method: as §1, §2

S. aureus OWPH 2128 = assay: as above; conditions: Staphylococcus aureus, OWPH2128, 18 h; S. aureus OWPH 2128, new quinolone-resistant and methicillin-resistant; same procedure as Test Example 1
Method: as §1, §2

S. aureus OWPH 2133 = assay: as above; conditions: Staphylococcus aureus, OWPH2133, 18 h; S. aureus OWPH 2133, new quinolone-resistant and methicillin-resistant; same procedure as Test Example 1
Method: as §1, §2

S. aureus OWPH 2134 = assay: as above; conditions: Staphylococcus aureus, OWPH2134, 18 h; S. aureus OWPH 2134, new quinolone-resistant and methicillin-resistant; same procedure as Test Example 1
Method: as §1, §2

S. aureus Sh 2 = assay: as above; conditions: Staphylococcus aureus, SH2, 18 h; S. aureus Sh 2, new quinolone-resistant and methicillin-resistant; same procedure as Test Example 1
Method: as §1, §2

S. aureus Sh 44 = assay: as above; conditions: Staphylococcus aureus, SH44, 18 h; S. aureus Sh 44, new quinolone-resistant and methicillin-resistant; same procedure as Test Example 1
Method: as §1, §2

S. aureus Sh 47 = assay: as above; conditions: Staphylococcus aureus, SH47, 18 h; S. aureus Sh 47, new quinolone-resistant and methicillin-resistant; same procedure as Test Example 1
Method: as §1, §2

S. aureus Sh 54 = assay: as above; conditions: Staphylococcus aureus, SH54, 18 h; S. aureus Sh 54, new quinolone-resistant and methicillin-resistant; same procedure as Test Example 1
Method: as §1, §2

S. aureus Sh 8 = assay: as above; conditions: Staphylococcus aureus, SH8, 18 h; S. aureus Sh 8, new quinolone-resistant and methicillin-resistant; same procedure as Test Example 1
Method: as §1, §2

SMILES	MIC [1]	MIC [2]	MIC (Escherichia coli KC-14)	MIC [3]	MIC (Proteus vulgaris HX-19)	MIC [4]	MIC [5]	MIC [6]	MIC [7]	MIC [8]	MIC [9]	MIC (S. aureus OWPH 1770)	MIC (S. aureus OWPH 1773)	MIC (S. aureus OWPH 1786)	MIC (S. aureus OWPH 1792)	MIC (S. aureus OWPH 1793)	MIC (S. aureus OWPH 1796)	MIC (S. aureus OWPH 1799)	MIC (S. aureus OWPH 2124)	MIC (S. aureus OWPH 2127)	further results
CC1Sc2c(C(=O)O)c(=O)c3cc(F)c(-c4ccc(N)cc4)c(F)c3n21 (centres unmarked) [Example 25, 7-(4-Aminophenyl)-6,8-difluoro-1-methyl-4-oxo-4H-[1,3]thiazeto[3,2-a]quinoline-3-carboxylic acid]	≤ 0.006 µg/mL	0.05 µg/mL (≈ 0.134 µM)	0.05 µg/mL (≈ 0.134 µM)	0.2 µg/mL (≈ 0.534 µM)	0.025 µg/mL (≈ 0.0668 µM)	0.2 µg/mL (≈ 0.534 µM)	≤ 0.006 µg/mL	0.012 µg/mL (≈ 0.0321 µM)	0.012 µg/mL (≈ 0.0321 µM)	≤ 0.006 µg/mL	0.006 µg/mL (≈ 0.016 µM)	0.1 µg/mL (≈ 0.267 µM)	0.2 µg/mL (≈ 0.534 µM)	0.39 µg/mL (≈ 1.04 µM)	0.39 µg/mL (≈ 1.04 µM)	0.39 µg/mL (≈ 1.04 µM)	0.2 µg/mL (≈ 0.534 µM)	0.39 µg/mL (≈ 1.04 µM)	0.39 µg/mL (≈ 1.04 µM)	0.39 µg/mL (≈ 1.04 µM)	MIC (S. aureus OWPH 2128): 0.39 µg/mL (≈ 1.04 µM); MIC (S. aureus OWPH 2133): 0.39 µg/mL (≈ 1.04 µM); MIC (S. aureus OWPH 2134): 0.2 µg/mL (≈ 0.534 µM); MIC (S. aureus Sh 2): 0.39 µg/mL (≈ 1.04 µM); MIC (S. aureus Sh 44): 0.2 µg/mL (≈ 0.534 µM); MIC (S. aureus Sh 47): 0.39 µg/mL (≈ 1.04 µM); MIC (S. aureus Sh 54): 0.2 µg/mL (≈ 0.534 µM); MIC (S. aureus Sh 8): 0.2 µg/mL (≈ 0.534 µM)
COc1c(-c2ccccc2)c(F)cc2c(=O)c(C(=O)O)c3n(c12)C(C)S3 (centres unmarked) [Example 26, 6-Fluoro-8-methoxy-1-methyl-4-oxo-7-phenyl-4H-[1,3]thiazeto[3,2-a]quinoline-3-carboxylic acid]	≤ 0.006 µg/mL	0.2 µg/mL (≈ 0.539 µM)	0.78 µg/mL (≈ 2.1 µM)	0.78 µg/mL (≈ 2.1 µM)	0.39 µg/mL (≈ 1.05 µM)	3.13 µg/mL (≈ 8.43 µM)	0.025 µg/mL (≈ 0.0673 µM)	0.025 µg/mL (≈ 0.0673 µM)	0.1 µg/mL (≈ 0.269 µM)	0.012 µg/mL (≈ 0.0323 µM)	0.025 µg/mL (≈ 0.0673 µM)	0.39 µg/mL (≈ 1.05 µM)	0.39 µg/mL (≈ 1.05 µM)	0.78 µg/mL (≈ 2.1 µM)	1.56 µg/mL (≈ 4.2 µM)	1.56 µg/mL (≈ 4.2 µM)	0.78 µg/mL (≈ 2.1 µM)	1.56 µg/mL (≈ 4.2 µM)	0.39 µg/mL (≈ 1.05 µM)	1.56 µg/mL (≈ 4.2 µM)	MIC (S. aureus OWPH 2128): 1.56 µg/mL (≈ 4.2 µM); MIC (S. aureus OWPH 2133): 1.56 µg/mL (≈ 4.2 µM); MIC (S. aureus OWPH 2134): 0.78 µg/mL (≈ 2.1 µM); MIC (S. aureus Sh 2): 1.56 µg/mL (≈ 4.2 µM); MIC (S. aureus Sh 44): 0.78 µg/mL (≈ 2.1 µM); MIC (S. aureus Sh 47): 0.78 µg/mL (≈ 2.1 µM); MIC (S. aureus Sh 54): 0.78 µg/mL (≈ 2.1 µM); MIC (S. aureus Sh 8): 0.78 µg/mL (≈ 2.1 µM)

From patent EP0551518A1, “QUINOLINECARBOXYLIC ACID DERIVATIVE” (NIPPON SHINYAKU COMPANY, LIMITED, priority 1990, dated 1992)
